Laboratory results taken from US11242350B2, “Spirocyclic ROR-gamma modulators” (Escalier Biosciences B.V., priority 2018, dated 2022).

target: RORγt (Homo sapiens (Human), UniProt P51449); assay: Gal4 ligand binding assay (RORγt Gal fusion luciferase reporter assay in HEK293T cells); format: cell-based; details: RORγt inverse agonists in RORγt Gal fusion assay
Experimental: The N-terminal DNA binding domains (DBD) of the native RORγ and RORγt receptors have been substituted with that of the yeast GAL4-DBD and stably transfected in HEK293T cells that also stably express luciferase under the regulation by upstream activation sequence of yeast Gal4. These cells constitutively express high level RORγ activity due to binding of endogenous co-factors. Both agonist and inverse agonist activity can be detected. The assay was performed according to kit manufacturer's instructions as follows. 10 mM compound stocks were diluted serially 1:3 with DMSO and further diluted with provided media to generate 10 titration points from 60 μM to 3 nM. These treatment conditions were added to the plates as 2× media in 100 μL volume. Each plate includes a positive control with 10 titration points as well as 6 negative control wells with vehicle only, with final DMSO concentration of 0.2%. RORγ reporter cells were rapidly thawed and added to the plates in 100 μL volume. The plates were incubated for 24 h in a 37° C. humidified 5% CO2 incubator. Media was removed before the addition of room temperature luciferous detection substrate. After 5 minute incubation, relative light units (RLUs) were quantified using a plate reading luminometer. Data was normalized to […] with only 0.2%0DMSO. Before establishing internal controls, ursolic acid was used as control.

RORγt, sequence (P51449 269-508): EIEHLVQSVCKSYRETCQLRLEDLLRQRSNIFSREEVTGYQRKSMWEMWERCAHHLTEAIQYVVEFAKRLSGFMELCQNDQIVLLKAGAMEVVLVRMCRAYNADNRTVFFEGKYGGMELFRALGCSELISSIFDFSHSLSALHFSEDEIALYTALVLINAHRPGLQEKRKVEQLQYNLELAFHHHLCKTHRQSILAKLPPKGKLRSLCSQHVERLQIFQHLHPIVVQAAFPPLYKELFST

| SMILES | IC50 |
| --- | --- |
| CS(=O)(=O)N1CC2(CN(Cc3ccc(-c4ccc(C(O)(C(F)(F)F)C(F)(F)F)cc4)cc3O)C2)C1 [Example 61, 4′-(1,1,1,3,3,3-hexafluoro-2-hydroxypropan-2-yl)-4-((6-(methylsulfonyl)-2,6-diazaspiro[3.3]heptan-2-yl)methyl)-[1,1′-biphenyl]-3-ol] | 50 to 250 nM |
| CCc1cc(CN2CC3(C2)CN(S(C)(=O)=O)C3)cnc1-c1ccc(C(O)(C(F)(F)F)C(F)(F)F)cc1C [Example 62, 2-(4-(3-ethyl-5-((6-(methylsulfonyl)-2,6-diazaspiro[3.3]heptan-2-yl)methyl)pyridin-2-yl)-3-methylphenyl)-1,1,1,3,3,3-hexafluoropropan-2-ol] | 50 to 250 nM |
| CCc1cc(CN2CC3(C2)CN(S(C)(=O)=O)C3)ccc1-c1ccc(C(O)(C(F)(F)F)C(F)(F)F)cn1 [Example 63, 2-(6-(2-ethyl-4-((6-(methylsulfonyl)-2,6-diazaspiro[3.3]heptan-2-yl)methyl)phenyl)pyridin-3-yl)-1,1,1,3,3,3-hexafluoropropan-2-ol] | 50 to 250 nM |
| Cc1cc(C(O)(C(F)(F)F)C(F)(F)F)ccc1-c1cccc(N2CC3(C2)CN(S(C)(=O)=O)C3)c1C [Example 66, 2-(2,2′-dimethyl-3′-(6-(methylsulfonyl)-2,6-diazaspiro[3.3]heptan-2-yl)-[1,1′-biphenyl]-4-yl)-1,1,1,3,3,3-hexafluoropropan-2-ol] | 50 to 250 nM |
| Cc1cc(C(O)(C(F)(F)F)C(F)(F)F)ccc1-c1cccc(N2CC3(C2)CN(S(C)(=O)=O)C3)n1 [Example 67, 1,1,1,3,3,3-hexafluoro-2-(3-methyl-4-(6-(6-(methylsulfonyl)-2,6-diazaspiro[3.3]heptan-2-yl)pyridin-2-yl)phenyl)propan-2-ol] | > 250 nM |
| CCc1c(F)c(CN2CC3(C2)CN(S(C)(=O)=O)C3)cc(F)c1-c1ccc(C(O)(C(F)(F)F)C(F)(F)F)cc1Cl [Example 72, 2-(2-chloro-2′-ethyl-3′,6′-difluoro-4′-((6-(methylsulfonyl)-2,6-diazaspiro[3.3]heptan-2-yl)methyl)-[1,1′-biphenyl]-4-yl)-1,1,1,3,3,3-hexafluoropropan-2-ol] | < 50 nM |
| CCc1nc(CN2CC3(C2)CN(S(C)(=O)=O)C3)ccc1-c1ccc(C(O)(C(F)(F)F)C(F)(F)F)cc1C [Example 73, 2-(4-(2-ethyl-6-((6-(methylsulfonyl)-2,6-diazaspiro[3.3]heptan-2-yl)methyl)pyridin-3-yl)-3-methylphenyl)-1,1,1,3,3,3-hexafluoropropan-2-ol] | > 250 nM |
| CC(C)c1c(F)c(CN2CCC3(C2)CN(S(C)(=O)=O)C3)cc(F)c1-c1ccc(C(O)(C(F)(F)F)C(F)(F)F)cc1 [Example 74, 2-(3′,6′-difluoro-2′-isopropyl-4′-((2-(methylsulfonyl)-2,6-diazaspiro[3.4]octan-6-yl)methyl)-[1,1′-biphenyl]-4-yl)-1,1,1,3,3,3-hexafluoropropan-2-ol] | 50 to 250 nM |
| CCc1cc(CN2CC3(C2)CN(S(C)(=O)=O)C3)ccc1-c1ccc(C(O)(C(F)(F)F)C(F)(F)F)cc1Cl [Example 75, 2-(2-chloro-2′-ethyl-4′-((6-(methylsulfonyl)-2,6-diazaspiro[3.3]heptan-2-yl)methyl)-[1,1′-biphenyl]-4-yl)-1,1,1,3,3,3-hexafluoropropan-2-ol] | < 50 nM |
| CCc1cc(C(O)(C(F)(F)F)C(F)(F)F)ccc1-c1ccc(CN2CC3(C2)CN(S(C)(=O)=O)C3)cc1C [Example 76, 2-(2-ethyl-2′-methyl-4′-((6-(methylsulfonyl)-2,6-diazaspiro[3.3]heptan-2-yl)methyl)-[1,1′-biphenyl]-4-yl)-1,1,1,3,3,3-hexafluoropropan-2-ol] | < 50 nM |
| CCc1cc(CN2CC3(C2)CN(S(C)(=O)=O)C3)ccc1-c1ccc(C(O)(C(F)(F)F)C(F)(F)F)cc1CC [Example 77, 2-(2,2′-diethyl-4′-((6-(methylsulfonyl)-2,6-diazaspiro[3.3]heptan-2-yl)methyl)-[1,1′-biphenyl]-4-yl)-1,1,1,3,3,3-hexafluoropropan-2-ol] | < 50 nM |
| CC(C)c1cc(CN2CC3(C2)CN(S(C)(=O)=O)C3)c(F)cc1-c1ccc(C(O)(C(F)(F)F)C(F)(F)F)cc1 [Example 78, 1,1,1,3,3,3-hexafluoro-2-(5′-fluoro-2′-isopropyl-4′-((6-(methylsulfonyl)-2,6-diazaspiro[3.3]heptan-2-yl)methyl)-[1,1′-biphenyl]-4-yl)propan-2-ol] | < 50 nM |
| Cc1cc(C(O)(C(F)(F)F)C(F)(F)F)ccc1-c1cc(F)c(CN2CC3(C2)CN(S(C)(=O)=O)C3)cc1C(C)C [Example 79, 1,1,1,3,3,3-hexafluoro-2-(5′-fluoro-2′-isopropyl-2-methyl-4′-((6-(methylsulfonyl)-2,6-diazaspiro[3.3]heptan-2-yl)methyl)-[1,1′-biphenyl]-4-yl)propan-2-ol] | < 50 nM |
| CC(C)c1cc(CN2CC3(C2)CN(S(C)(=O)=O)C3)c(F)cc1-c1ccc(C(O)(C(F)(F)F)C(F)(F)F)cc1F [Example 80, 2-(2,5′-difluoro-2′-isopropyl-4′-((6-(methylsulfonyl)-2,6-diazaspiro[3.3]heptan-2-yl)methyl)-[1,1′-biphenyl]-4-yl)-1,1,1,3,3,3-hexafluoropropan-2-ol] | < 50 nM |
| CC(C)c1cc(CN2CC3(C2)CN(S(C)(=O)=O)C3)c(F)cc1-c1ccc(C(O)(C(F)(F)F)C(F)(F)F)cc1Cl [Example 81, 2-(2-chloro-5′-fluoro-2′-isopropyl-4′-((6-(methylsulfonyl)-2,6-diazaspiro[3.3]heptan-2-yl)methyl)-[1,1′-biphenyl]-4-yl)-1,1,1,3,3,3-hexafluoropropan-2-ol] | < 50 nM |
| CCc1cc(CN2CC3(C2)CN(S(C)(=O)=O)C3)c(F)cc1-c1ccc(C(O)(C(F)(F)F)C(F)(F)F)cc1F [Example 82, 2-(2′-ethyl-2,5′-difluoro-4′-((6-(methylsulfonyl)-2,6-diazaspiro[3.3]heptan-2-yl)methyl)-[1,1′-biphenyl]-4-yl)-1,1,1,3,3,3-hexafluoropropan-2-ol] | < 50 nM |

The next lines start with the values.

| IC50 | SMILES |
| --- | --- |
| < 50 nM | COc1cc(CN2CC3(C2)CN(S(C)(=O)=O)C3)ccc1-c1ccc(C(O)(C(F)(F)F)C(F)(F)F)cc1C [Example 57, 1,1,1,3,3,3-hexafluoro-2-(2′-methoxy-2-methyl-4′-((6-(methylsulfonyl)-2,6-diazaspiro[3.3]heptan-2-yl)methyl)-[1,1′-biphenyl]-4-yl)propan-2-ol] |
| < 50 nM | CCc1cc(CN2CCC3(CCS(=O)(=O)C3)C2)ccc1-c1ccc(C(O)(C(F)(F)F)C(F)(F)F)cc1 (stereo not shown) [Example 58, 7-((2-ethyl-4′-(1,1,1,3,3,3-hexafluoro-2-hydroxypropan-2-yl)-[1,1′-biphenyl]-4-yl)methyl)-2-thia-7-azaspiro[4.4]nonane 2,2-dioxide] |
| < 50 nM | CCc1cc(CN2CC3(C2)CN(S(C)(=O)=O)C3)ncc1-c1ccc(C(O)(C(F)(F)F)C(F)(F)F)cc1 [Example 60, 2-(4-(4-ethyl-6-((6-(methylsulfonyl)-2,6-diazaspiro[3.3]heptan-2-yl)methyl)pyridin-3-yl)phenyl)-1,1,1,3,3,3-hexafluoropropan-2-ol] |
| < 50 nM | CCc1cc(CN2CC3(C2)CN(S(C)(=O)=O)C3)ncc1-c1ccc(C(O)(C(F)(F)F)C(F)(F)F)cc1C [Example 64, 2-(4-(4-ethyl-6-((6-(methylsulfonyl)-2,6-diazaspiro[3.3]heptan-2-yl)methyl)pyridin-3-yl)-3-methylphenyl)-1,1,1,3,3,3-hexafluoropropan-2-ol] |
| < 50 nM | CCc1cc(CN2CC3(C2)CN(S(C)(=O)=O)C3)ccc1-c1ccc(C(O)(C(F)(F)F)C(F)(F)F)cc1C#N [Example 65, 2′-ethyl-4-(1,1,1,3,3,3-hexafluoro-2-hydroxypropan-2-yl)-4′-((6-(methylsulfonyl)-2,6-diazaspiro[3.3]heptan-2-yl)methyl)-[1,1′-biphenyl]-2-carbonitrile] |
| < 50 nM | CCc1c(F)c(CN2CC3(C2)CN(S(C)(=O)=O)C3)cc(F)c1-c1ccc(C(O)(C(F)(F)F)C(F)(F)F)cc1C [Example 68, 2-(2′-ethyl-3′,6′-difluoro-2-methyl-4′-((6-(methylsulfonyl)-2,6-diazaspiro[3.3]heptan-2-yl)methyl)-[1,1′-biphenyl]-4-yl)-1,1,1,3,3,3-hexafluoropropan-2-ol] |
| < 50 nM | CCc1c(F)c(CN2CC3(C2)CN(S(C)(=O)=O)C3)cc(F)c1-c1ccc(C(O)(C(F)(F)F)C(F)(F)F)cc1 [Example 69, 2-(2′-ethyl-3′,6′-difluoro-4′-((6-(methylsulfonyl)-2,6-diazaspiro[3.3]heptan-2-yl)methyl)-[1,1′-biphenyl]-4-yl)-1,1,1,3,3,3-hexafluoropropan-2-ol] |
| < 50 nM | CCc1c(F)c(CN2CC3(C2)CN(S(C)(=O)=O)C3)cc(F)c1-c1ccc(C(O)(C(F)(F)F)C(F)(F)F)cc1F [Example 70, 2-(2′-ethyl-2,3′,6′-trifluoro-4′-((6-(methylsulfonyl)-2,6-diazaspiro[3.3]heptan-2-yl)methyl)-[1,1′-biphenyl]-4-yl)-1,1,1,3,3,3-hexafluoropropan-2-ol] |
| < 50 nM | CCc1cc(C(O)(C(F)(F)F)C(F)(F)F)ccc1-c1c(F)cc(CN2CC3(C2)CN(S(C)(=O)=O)C3)c(F)c1CC [Example 71, 2-(2,2′-diethyl-3′,6′-difluoro-4′-((6-(methylsulfonyl)-2,6-diazaspiro[3.3]heptan-2-yl)methyl)-[1,1′-biphenyl]-4-yl)-1,1,1,3,3,3-hexafluoropropan-2-ol] |
